The record followed here is patent publication US20060063759A1, “Tricyclic steroid hormone nuclear receptor modulators” (priority 2002, published 2006).

What is called pKi is −log10 of the Ki, conventionally taken in molar units.

One experiment addresses T1, human MR (Homo sapiens, UniProt P08235).
T1 construct: The full length human MR gene is cloned from a human kidney or human brain cDNA library; His tag from the pAcHLT vector (own knowledge); made in house; host or cells: Sf9 insect cells (baculovirus, pAcHLT transfer vector)
T1 sequence (P08235 1-984): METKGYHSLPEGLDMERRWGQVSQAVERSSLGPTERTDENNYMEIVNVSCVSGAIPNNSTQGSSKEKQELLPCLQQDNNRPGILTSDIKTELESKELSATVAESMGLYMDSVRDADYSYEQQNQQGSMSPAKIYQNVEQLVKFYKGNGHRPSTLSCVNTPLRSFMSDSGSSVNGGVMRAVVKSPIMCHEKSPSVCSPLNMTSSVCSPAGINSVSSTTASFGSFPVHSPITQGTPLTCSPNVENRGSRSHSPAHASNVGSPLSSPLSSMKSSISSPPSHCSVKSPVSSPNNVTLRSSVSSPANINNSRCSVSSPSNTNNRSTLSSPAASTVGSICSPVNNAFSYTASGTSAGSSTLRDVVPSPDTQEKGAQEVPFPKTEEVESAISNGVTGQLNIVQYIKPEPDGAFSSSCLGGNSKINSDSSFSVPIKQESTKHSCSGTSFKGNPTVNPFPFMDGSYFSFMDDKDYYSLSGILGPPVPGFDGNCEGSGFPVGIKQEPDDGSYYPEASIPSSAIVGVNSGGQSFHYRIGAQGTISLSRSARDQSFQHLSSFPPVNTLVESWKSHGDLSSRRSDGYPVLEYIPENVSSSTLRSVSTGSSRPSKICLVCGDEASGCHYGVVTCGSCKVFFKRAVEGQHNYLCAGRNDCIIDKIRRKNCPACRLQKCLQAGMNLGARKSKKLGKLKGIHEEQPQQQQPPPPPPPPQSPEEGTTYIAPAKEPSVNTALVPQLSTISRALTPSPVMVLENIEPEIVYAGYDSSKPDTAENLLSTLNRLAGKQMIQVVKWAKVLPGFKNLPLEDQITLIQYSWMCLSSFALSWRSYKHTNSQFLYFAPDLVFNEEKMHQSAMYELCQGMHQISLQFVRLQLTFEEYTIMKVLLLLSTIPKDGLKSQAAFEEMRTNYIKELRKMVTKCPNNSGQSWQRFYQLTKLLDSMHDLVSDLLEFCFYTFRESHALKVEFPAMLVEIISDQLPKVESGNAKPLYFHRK
As to the kind of experiment: Mineralocorticoid Receptor Binding Assay ([3H]-aldosterone). The note with it: [3H]-aldosterone binding, human MR expressed in Sf9 cells; read-out: MR Ki. A digest of the protocol:
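Receptor source: freeze-thaw lysate of baculovirus-infected Sf9 cells carrying full-length human MR, 20-25 μg protein. Incubation ~16 h at 4 °C with shaking, pH 7.5 buffer containing 30 mM sodium molybdate and 10% glycerol.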

The next experiment concerns the target T2, glucocorticoid receptor (Homo sapiens, UniProt P04150).
T2 construct: containing 50-200 ug of A549 cell extract and 1.86 nM [^3H]-dexamethasone; host or cells: A549 human lung epithelial cells (sonicated cell extract)
T2 sequence (P04150 1-777): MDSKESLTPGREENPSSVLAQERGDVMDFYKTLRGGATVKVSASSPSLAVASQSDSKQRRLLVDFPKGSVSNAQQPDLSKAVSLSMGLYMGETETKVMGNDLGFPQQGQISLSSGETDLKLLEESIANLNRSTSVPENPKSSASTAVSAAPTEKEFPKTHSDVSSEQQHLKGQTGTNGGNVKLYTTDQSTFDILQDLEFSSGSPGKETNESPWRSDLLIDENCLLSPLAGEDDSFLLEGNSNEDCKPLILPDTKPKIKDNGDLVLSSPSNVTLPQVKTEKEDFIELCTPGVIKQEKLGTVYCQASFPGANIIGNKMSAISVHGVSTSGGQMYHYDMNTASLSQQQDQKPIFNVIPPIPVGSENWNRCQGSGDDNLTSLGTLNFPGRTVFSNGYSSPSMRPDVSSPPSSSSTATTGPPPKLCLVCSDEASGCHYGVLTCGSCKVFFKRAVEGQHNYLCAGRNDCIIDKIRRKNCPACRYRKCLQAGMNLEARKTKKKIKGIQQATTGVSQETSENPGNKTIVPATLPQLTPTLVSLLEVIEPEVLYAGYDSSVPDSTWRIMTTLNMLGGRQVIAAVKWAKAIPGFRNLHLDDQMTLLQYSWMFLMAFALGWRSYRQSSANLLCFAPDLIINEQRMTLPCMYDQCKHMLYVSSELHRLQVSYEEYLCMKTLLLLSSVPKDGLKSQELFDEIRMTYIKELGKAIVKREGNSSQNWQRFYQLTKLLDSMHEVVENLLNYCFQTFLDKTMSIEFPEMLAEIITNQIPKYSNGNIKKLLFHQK
In words: Glucocorticoid Receptor Binding Assay ([3H]-dexamethasone, A549 cell extract). The note with it: [3H]-dexamethasone binding, read-out: GR Ki. Here is the method:
All ligands, radioligands, solvents, and reagents employed in the binding assays are readily available from commercial sources, or can be readily synthesized by the ordinarily skilled artisan.
A549 human lung epithelial cells (ATCC) are grown at a scale where gram quantity cell pellets are obtained. Harvested cell pellets are washed twice in cold phosphate buffered saline, centrifuged, and resuspended in cold assay binding buffer. The assay binding buffer consists of 10% glycerol, 50 mM Tris-HCl (pH7.2), 75 mM sodium chloride, 1.5 mM magnesium chloride, 1.5 mM EDTA, and 10 mM sodium molybdate. Cell suspensions were lysed via sonication, centrifuged, and the “extract” supernatant is snap frozen and stored at −80 C until needed.
GR binding assays are performed in a final volume of 140 ul containing 50-200 ug of A549 cell extract and 1.86 nM [^3H]-dexamethasone (Amersham) plus varying concentrations of test compound or vehicle. Briefly, assays are prepared at RT in 96-well Fisher 3356 plates, each well containing 100 ul of A549 cell extract, 20 ul of [^3H]-dexamethasone, and 20 ul of test compound/vehicle. Incubations are carried out at 4 degrees Celsius for 16 hours. After incubation, 70 ul of 3× dextran-coated charcoal solution is added to each reaction, mixed, and incubated for 8 minutes at RT. 3×-dextran-coated charcoal solution consists of 250 ml assay binding buffer, 3.75 g Norit A charcoal (Sigma), and 1.25 g dextran T-70 (Amersham). Charcoal/unbound radioligand complexes are removed by centrifugation of the plate and 140 ul of supernatant from each well is transferred to another 96 well Optiplate (Packard Instruments). 200 ul of Microscint-20 scinillant (Packard Instruments) is added to each well and amount of receptor bound radioligand is determined using Packard Instruments TopCount instrument.

pKi: −log10 of the molar value.

As to `CS(=O)(=O)Nc1cccc(C=C2c3ccccc3CCc3ccc(Cl)cc32)c1` [188(a), N-[3-(3-Chloro-10,11-dihydro-dibenzo[a,d]cyclohepten-5-ylidenemethyl)-phenyl]-methanesulfonamide], the pKi at human MR and at glucocorticoid receptor was more than 6.30 in each case.
In the case of `Oc1cccc(C=C2c3ccccc3CCc3cc(OCCN4CCOCC4)ccc32)c1` [195(a), 3-[2-(2-Morpholin-4-yl-ethoxy)-10,11-dihydro-dibenzo[a,d]cyclohepten-5-ylidenemethyl]-phenol], the pKi is more than 6.30 at human MR and more than 6.00 at glucocorticoid receptor.
Taken in the same sequence, the figures for `CS(=O)(=O)Nc1cccc(C=C2c3ccccc3CCc3c2ccc(Cl)c3Cl)c1` [197(a), N-[3-(1,2-Dichloro-10,11-dihydro-dibenzo[a,d]cyclohepten-5-ylidenemethyl)-phenyl]-methanesulfonamide] were more than 6.30 and more than 6.30.
Regarding `Oc1cccc(C=C2c3ccccc3CCc3c2ccc(Cl)c3Cl)c1` [198(a), 3-(1,2-Dichloro-10,11-dihydro-dibenzo[a,d]cyclohepten-5-ylidenemethyl)-phenol], the pKi at human MR and on glucocorticoid receptor was more than 6.30 each time.
As for `Oc1cccc(C=C2c3ccccc3CCc3c2ccc(Cl)c3Cl)c1` [198(b), 3-(1,2-Dichloro-10,11-dihydro-dibenzo[a,d]cyclohepten-5-ylidenemethyl)-phenol], the values for the pKi on human MR and on glucocorticoid receptor were more than 6.30 and more than 6.00, respectively.
On the same counts, the results for `CS(=O)(=O)Nc1cccc(C=C2c3ccccc3CCc3cc(F)ccc32)c1` [199(a), N-[3-(2-Fluoro-10,11-dihydro-dibenzo[a,d]cyclohepten-5-ylidenemethyl)-phenyl]-methanesulfonamide] are more than 6.30 and more than 6.30.
On the same counts, the results for `Oc1cccc(C=C2c3ccccc3CCc3cc(F)ccc32)c1` [200(a), 3-(2-Fluoro-10,11-dihydro-dibenzo[a,d]cyclohepten-5-ylidenemethyl)-phenol] are more than 6.30 and more than 6.30.
On the same counts, the results for `CS(=O)(=O)Nc1cccc(C=C2c3ccccc3CCc3cc(Cl)ccc32)c1` [206(b), N-[3-(2-Chloro-10,11-dihydro-dibenzo[a,d]cyclohepten-5-ylidenemethyl)-phenyl]-methanesulfonamide] are more than 6.30 and more than 6.30.
Consider `Oc1cccc(C=C2c3ccccc3CCc3c(Cl)cccc32)c1` [211(a), 3-(1-Chloro-10,11-dihydro-dibenzo[a,d]cyclohepten-5-ylidenemethyl)-phenol], for which the pKi on human MR and on glucocorticoid receptor was more than 6.30 throughout.
For the compound `Oc1cccc(C=C2c3ccccc3CCc3c(Cl)cccc32)c1` [211(b), 3-(1-Chloro-10,11-dihydro-dibenzo[a,d]cyclohepten-5-ylidenemethyl)-phenol], the pKi at human MR is more than 6.30; on glucocorticoid receptor it was more than 6.00.
Taken in the same sequence, the figures for `Cc1nc2c(s1)/C(=C/c1cccc(NS(C)(=O)=O)c1)c1ccccc1CC2` [483(a), N-[3-(2-Methyl-9,10-dihydro-3-thia-1-aza-benzo[f]azulen-4-ylidenemethyl)-phenyl]-methanesulfonamide] were more than 6.30 and more than 6.30.
On the same counts, the results for `Cc1nc2c(s1)/C(=C\c1cccc(NS(C)(=O)=O)c1)c1ccccc1CC2` [483(b), N-[3-(2-Methyl-9,10-dihydro-3-thia-1-aza-benzo[f]azulen-4-ylidenemethyl)-phenyl]-methanesulfonamide] are more than 6.30 and more than 6.30.
Consider `CS(=O)(=O)Nc1cccc(/C=C2\c3ccccc3CCc3scnc32)c1` [484(a), N-[3-(9,10-Dihydro-1-thia-3-aza-benzo[f]azulen-4-ylidenemethyl)-phenyl]-methanesulfonamide], for which the pKi on human MR is more than 6.00; at glucocorticoid receptor, more than 6.30.
`CS(=O)(=O)Nc1cccc(/C=C2/c3ccccc3CCc3scnc32)c1` [484(b), N-[3-(9,10-Dihydro-1-thia-3-aza-benzo[f]azulen-4-ylidenemethyl)-phenyl]-methanesulfonamide]: the pKi at human MR and on glucocorticoid receptor was more than 6.30 each time.
On to `NS(=O)(=O)c1ccccc1C=C1c2ccccc2CCc2ccccc21` [Example 3, 2-(10,11-Dihydro-dibenzo[a,d]cyclohepten-5-ylidenemethyl)-benzenesulfonamide], for which the pKi on human MR and at glucocorticoid receptor was more than 6.00 each time.
For the compound `CN(C)S(=O)(=O)c1ccccc1C=C1c2ccccc2CCc2ccccc21` [Example 5, 2-(10,11-Dihydro-dibenzo[a,d]cyclohepten-5-ylidenemethyl)-N,N-dimethyl-benzenesulfonamide], the pKi at human MR and on glucocorticoid receptor was more than 6.30 throughout.
Regarding `COc1ccc(N)cc1C=C1c2ccccc2CCc2ccccc21` [Example 41, 3-(10,11-Dihydro-dibenzo[a,d]cyclohepten-5-ylidenemethyl)-4-methoxy-phenylamine], the pKi on human MR was more than 6.00; at glucocorticoid receptor, more than 5.00.
On the same counts, the results for `COc1ccc(NS(C)(=O)=O)cc1C=C1c2ccccc2CCc2ccccc21` [Example 42, N-[3-(10,11-Dihydro-dibenzo[a,d]cyclohepten-5-ylidenemethyl)-4-methoxy-phenyl]-methanesulfonamide] are more than 6.30 and more than 5.00.
Taken in the same sequence, the figures for `Cc1ccc(C=C2c3ccccc3CCc3ccccc32)cc1NS(C)(=O)=O` [Example 45, N-[5-(10,11-Dihydro-dibenzo[a,d]cyclohepten-5-ylidenemethyl)-2-methyl-phenyl]-methanesulfonamide] were more than 6.30 and more than 6.00.
Taken in the same sequence, the figures for `Cc1ccc(NS(C)(=O)=O)cc1C=C1c2ccccc2CCc2ccccc21` [Example 47, N-[3-(10,11-Dihydro-dibenzo[a,d]cyclohepten-5-ylidenemethyl)-4-methyl-phenyl]-methanesulfonamide] were more than 6.30 and more than 6.00.
